Patent publication US20200354426A1 (MEDIMMUNE LIMITED, priority 2016, published 2020)
Like-named read-outs stand apart in the source and are kept apart here. Numbered stars: 1 amine (or outer) side, 2 acyl side, 3 side chain; on linkers, the order of the positions; unused ones are H or OH. Side chains are listed from the residue outwards. Peptide text beside a SMILES is read from it. * marks the point of attachment. γGlu = O=C(O)[C@H](CCC(=O)[*:2])N[*:1]; Palmitoyl = CCCCCCCCCCCCCCCC(=O)*

How the values were obtained:
[1] = Stability testing of peptides in plasma; type: in vitro ADME, rat
Method: (§1) The stability in plasma of the peptideS […], […], […] and […] was determined as follows. […] The spiked plasma samples were gently mixed and allowed to equilibrate for about 5 minutes before start of experiment. The plasma samples were incubated for 48 hours in a GalaxyR CO2 incubator at 37° C. […] The samples were stored at -70° C. until analysis. Plasma samples were assayed as follows. […] After mixing and centrifugation, 100 μl the supernatant was transferred to a new plate and 1 μl was injected onto an analytical column. The analysis was performed using a μLC-system ([…]) coupled to a medium high resolution mass spectrometer (Perkin Elmer PenTOF) with positive electrospray ionisation. […] Flow: 0.1 ml/min using a slow reversed phase gradient. […] Cleavage products arise from the action of the protease DPP IV in plasma. Both the degradation of the peptides and formation of peptide products were reported in percentage of the initial peptide concentration. Peaks were integrated and % remaining peptide was calculated: […] Levels of deamidation and DPP IV cleavage were low for […] and […].

[2] = target: Human GLP1R (Homo sapiens, UniProt P43220)
Chain of Human GLP1R (P43220 24-463): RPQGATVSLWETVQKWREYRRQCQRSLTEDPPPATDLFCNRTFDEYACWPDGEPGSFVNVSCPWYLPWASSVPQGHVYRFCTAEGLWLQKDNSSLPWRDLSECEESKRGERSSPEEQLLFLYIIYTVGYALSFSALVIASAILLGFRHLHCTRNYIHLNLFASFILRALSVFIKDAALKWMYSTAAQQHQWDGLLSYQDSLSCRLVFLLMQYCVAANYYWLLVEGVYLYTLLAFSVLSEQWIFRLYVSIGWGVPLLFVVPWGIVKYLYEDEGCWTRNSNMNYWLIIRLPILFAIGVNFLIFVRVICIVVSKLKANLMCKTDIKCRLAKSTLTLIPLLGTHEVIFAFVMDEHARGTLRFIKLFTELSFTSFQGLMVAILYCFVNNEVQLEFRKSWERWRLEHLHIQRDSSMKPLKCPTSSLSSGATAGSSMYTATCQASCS

[3] = target: T1, Rat GlucR (Rattus norvegicus, UniProt P30082); assay: cAMP assay in 3.2% rat serum albumin (assay 2); type: cell-based; conditions: for Rat GlucR/GLP1R Ratio: […] rat serum albumin, relative potencies vs natural ligands
T1 construct: expressed in transfected cells
T1 sequence (P30082 27-485): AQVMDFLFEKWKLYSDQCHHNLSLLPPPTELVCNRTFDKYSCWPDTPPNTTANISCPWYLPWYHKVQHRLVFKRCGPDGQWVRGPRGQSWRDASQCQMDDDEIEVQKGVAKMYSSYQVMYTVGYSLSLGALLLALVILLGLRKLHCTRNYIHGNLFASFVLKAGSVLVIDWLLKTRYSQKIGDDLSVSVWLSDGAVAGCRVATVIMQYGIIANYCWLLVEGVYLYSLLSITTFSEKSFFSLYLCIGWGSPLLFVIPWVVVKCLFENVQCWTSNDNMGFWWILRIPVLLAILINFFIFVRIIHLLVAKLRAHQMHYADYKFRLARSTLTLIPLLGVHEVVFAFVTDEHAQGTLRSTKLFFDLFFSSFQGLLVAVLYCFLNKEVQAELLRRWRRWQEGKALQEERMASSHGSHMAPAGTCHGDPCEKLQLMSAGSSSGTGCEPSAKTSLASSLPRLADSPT

[4] = target: T2, Mouse GLP1R (Mus musculus, UniProt O35659); assay: cAMP assay in 3.2% mouse serum albumin (assay 2); type: cell-based
T2 construct: expressed in transfected cells
T2 sequence (O35659 22-463): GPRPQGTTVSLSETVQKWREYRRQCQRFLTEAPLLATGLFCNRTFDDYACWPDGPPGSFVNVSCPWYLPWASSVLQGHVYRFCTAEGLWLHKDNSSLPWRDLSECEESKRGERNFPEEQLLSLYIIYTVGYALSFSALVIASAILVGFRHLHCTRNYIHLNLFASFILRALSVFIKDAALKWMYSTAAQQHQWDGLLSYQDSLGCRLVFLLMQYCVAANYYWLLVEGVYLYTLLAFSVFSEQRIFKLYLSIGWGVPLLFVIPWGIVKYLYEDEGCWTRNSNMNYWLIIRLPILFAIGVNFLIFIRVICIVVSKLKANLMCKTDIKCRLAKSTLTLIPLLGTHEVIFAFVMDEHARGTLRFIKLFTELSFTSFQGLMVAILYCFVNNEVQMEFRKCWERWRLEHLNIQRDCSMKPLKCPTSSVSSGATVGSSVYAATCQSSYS
Method: (§2) Cryopreserved cell stocks were prepared in 1× cell freezing medium-DMSO serum free (Sigma Aldrich) at 2×10^7/vial and stored at −80° C. […] Peptides were serially diluted in DMSO and then diluted 100 fold into DMEM containing serum albumin at stated final concentration. […] Cells were added to the assay plates and incubated for 30 min at room temperature. Following incubation the assay was stopped and cAMP levels measured using the HTRF® dynamic d2 cAMP assay kit available from CisBio Bioassays, as per the manufacture's guidelines. Plates were read on Perkin Elmer ENVISION® fluorescence plate readers. Human and rat serum albumin were purchased from Sigma Aldrich and mouse serum albumin from Equitech Bio Ltd.
(§3) Data was transformed to % Delta F as described in manufacturer's guidelines and analysed by 4-parameter logistic fit to determine EC50 values. […] For instance. […] To compare the balance of activities at the GLP1R and GlucR between different peptides and across different conditions, these can be correlated using the calculation below, where the EC50's are related to those of the natural ligands.

[5] = Peptide solubility in buffers (A280); type: physicochemical
Source text: G730 was soluble in a pH range of 4.5 to 8.0.

[6] = target: T3, Human GlucR (Homo sapiens, UniProt P47871); assay: cAMP assay in 4.4% human serum albumin (assay 2); type: cell-based
T3 construct: expressed in transfected cells
T3 sequence (P47871 26-477): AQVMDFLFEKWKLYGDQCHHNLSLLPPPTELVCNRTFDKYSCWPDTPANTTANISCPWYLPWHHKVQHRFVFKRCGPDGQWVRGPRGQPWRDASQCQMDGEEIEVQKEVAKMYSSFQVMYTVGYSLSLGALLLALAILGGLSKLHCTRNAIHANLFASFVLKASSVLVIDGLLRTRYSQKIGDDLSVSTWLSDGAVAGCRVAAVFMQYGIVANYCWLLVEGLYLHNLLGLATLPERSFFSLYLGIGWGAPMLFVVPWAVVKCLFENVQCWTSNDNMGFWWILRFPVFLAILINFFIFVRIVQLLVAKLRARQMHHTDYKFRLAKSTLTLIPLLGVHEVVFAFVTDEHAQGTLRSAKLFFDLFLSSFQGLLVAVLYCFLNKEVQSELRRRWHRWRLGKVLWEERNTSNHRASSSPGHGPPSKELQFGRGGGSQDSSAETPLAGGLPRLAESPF
Method: as §2, §3

[7] = target: T4, Mouse GlucR (Mus musculus, UniProt Q61606); assay: cAMP assay in 3.2% mouse serum albumin (assay 2); type: cell-based; conditions: relative potencies vs natural ligands
T4 construct: expressed in transfected cells
T4 sequence (Q61606 27-485): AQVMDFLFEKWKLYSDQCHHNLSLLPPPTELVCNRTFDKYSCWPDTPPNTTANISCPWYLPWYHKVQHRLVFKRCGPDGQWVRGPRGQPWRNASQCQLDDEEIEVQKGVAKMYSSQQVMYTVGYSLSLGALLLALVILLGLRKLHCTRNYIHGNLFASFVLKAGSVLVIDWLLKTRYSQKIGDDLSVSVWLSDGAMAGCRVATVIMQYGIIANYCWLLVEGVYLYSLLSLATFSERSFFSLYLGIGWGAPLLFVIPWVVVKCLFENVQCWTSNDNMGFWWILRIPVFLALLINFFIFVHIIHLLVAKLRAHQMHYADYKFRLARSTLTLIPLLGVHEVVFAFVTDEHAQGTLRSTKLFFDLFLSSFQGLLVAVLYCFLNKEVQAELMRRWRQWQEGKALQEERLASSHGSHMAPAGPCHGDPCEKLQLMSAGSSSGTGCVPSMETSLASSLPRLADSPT

[8] = Stability testing of peptides in plasma; type: in vitro ADME, mouse
Method: as §1

[9] = Peptide solubility in isotonic formulations (A280); type: physicochemical
Method: Default Formulation (DF)=0.1 M Tris pH 7.5, 150 mM Mannitol. Final formulation pH=7.2 • 2. Back up formulation t (BF)=0.05M Tris, 50 mM Arginine/Proline. Final formulation pH=9.0 • 3. […] Final formulation pH=7.0

[10] = Stability testing of peptides in plasma; type: in vitro ADME, human
Method: as §1

[11] = system: healthy volunteers; assay: Phase 1 single-ascending-dose study of G933 (PK, PD, immunogenicity, safety); type: in vivo, human; conditions: for Overall daily food intake compared with placebo: across breakfast, lunch and dinner; for Median glucose peak after breakfast: approximately 1 hour post breakfast, 3.5 hours post dose; for Median glucose peak after dinner: approximately 1 hour post dinner, […] post dose; for Median glucose peak after lunch: approximately 1 hour post lunch, 7 hours post dose
Source text: The subjects were screened for the following inclusion and exclusion criteria.
Inclusion Criteria: • Healthy volunteers, ages 18 through 45 years at the time of screening; • Body mass index ≥22 and ≤30 kg/m^2 and body weight ≥70 kg; and • Venous access suitable for multiple cannulations.
The period of exclusion to begin 30 days or 5 half-lives of investigational product after the final dose, or after the last visit, whichever is longest. Subjects consented and screened, but not randomized into this study or a previous study, are not excluded; or • Psychiatric illness such that subjects have been committed to an institution by way of official or judicial order
Eight subjects per cohort were planned.

CCCCCCCCCCCCCCCC(=O)N[C@@H](CCC(=O)NCCCC[C@H](NC(=O)[C@H](CCCCN)NC(=O)[C@H](CO)NC(=O)[C@H](Cc1ccc(O)cc1)NC(=O)[C@H](CC(=O)O)NC(=O)[C@H](CO)NC(=O)[C@@H](NC(=O)[C@H](Cc1ccccc1)NC(=O)[C@@H](NC(=O)CNC(=O)[C@H](CCC(N)=O)NC(=O)[C@H](CO)NC(=O)[C@@H](N)Cc1c[nH]cn1)[C@@H](C)O)[C@@H](C)O)C(=O)N[C@@H](CC(C)C)C(=O)N[C@@H](CC(=O)O)C(=O)N[C@@H](CO)C(=O)N[C@@H](CCC(=O)O)C(=O)N[C@@H](CCCNC(=N)N)C(=O)N[C@@H](C)C(=O)N[C@@H](CCCNC(=N)N)C(=O)N[C@@H](CC(=O)O)C(=O)N[C@@H](Cc1ccccc1)C(=O)N[C@H](C(=O)N[C@@H](C)C(=O)N[C@@H](Cc1c[nH]c2ccccc12)C(=O)N[C@@H](CC(C)C)C(=O)N[C@H](C(=O)N[C@@H](C)C(=O)NCC(=O)NCC(N)=O)C(C)C)C(C)C)C(=O)O [Peptide G730] (H-HSQGTFTSDYSKK([γGlu-Palmitoyl])LDSERARDFVAWLVAGG-NH2; N-terminus assumed)
% +1 prod [1]: 58%
% DPP cleaved product/+1 DPP cleaved product [1]: 2%
remaining at 24 h, 2 μmol/L ([1]; rat, plasma): 24%
free peptide at 4.4% HSA [2]: 0.85%
EC50 ([3]; 3.2% rat serum albumin): 45.1 nM
Rat GlucR/GLP1R Ratio [3]: 0.06
EC50 [4]: 1.1 nM
Conc. (A280), target 1 mg/ml ([5]; Glutamate pH 4.5, 100 mM): 830 µg/mL
Conc. (A280), target 1 mg/ml ([5]; Phosphate pH 6.5, 100 mM): 830 µg/mL
Conc. (A280), target 1 mg/ml ([5]; Phosphate pH 7.5, 100 mM): 850 µg/mL
Conc. (A280), target 1 mg/ml ([5]; Phosphate, pH = 6, 100 mM): 140 µg/mL
Conc. (A280), target 1 mg/ml ([5]; Tris pH 7.5, 100 mM): 830 µg/mL
Conc. (A280), target 1 mg/ml ([5]; Tris pH 8.0, 100 mM): 1100 µg/mL
EC50 [6]: 0.402 nM
Human GlucR/GLP1R Ratio ([6]; relative potency GlucR / relative potency GLP1R vs natural ligands): 0.122
Mouse GlucR/GLP1R Ratio [7]: 0.04
% +1 DPP cleaved product [8]: 5%
% +1 prod [8]: 15%
% DPP cleaved product [8]: 14%
remaining at 24 h, 2 μmol/L ([8]; mouse plasma, 37° C., 24 h, read-out: % stable peptide): 65%
solubility ([9]; Default Formulation (DF), isotonic, DF = 0.1 M Tris pH 7.5, 150 mM Mannitol): ≥ 5000 µg/mL
Formulation Concentration ([9]; Formulation DF, by A280 nm): 5 mg/mL
10 mg/ml solubility (BF2) ([9]; yes/no): no
% +1 prod [10]: <1%
% DPP cleaved product/+1 DPP cleaved product [10]: <1%
remaining at 24 h, 2 μmol/L ([10]; human, plasma): 100%

L-Histidyl-L-seryl-L-glutaminylglycyl-L-threonyl-L-phenylalanyl-L-threonyl-L-seryl-L-alpha-aspartyl-(N6-[N-(1-oxohexadecyl)-L-gamma-gutamyl])L-lysy-L-sery-L-alpha-glutamyl-L-tyrosyl-L-leucyl-L-alpha-aspartyl-L-seryl-L-alpha-glutamyl-L-arginyl-L-alanyl-L-arginyl-L-alpha-L-aspartyl-L-phenylalanyl-L-valyl-L-alanyl-L-tryptophyl-L-leucyl-L-alpha-glutamyl-L-alanylglycylglycine [Peptide G933]
Rat GlucR/GLP1R Ratio [3]: 0.27
Overall daily food intake compared with placebo ([11]; Dose (µg) 5): 100%
Median glucose peak after breakfast ([11]; Dose (µg) 5): 6.2 mmol/L
Median glucose peak after dinner ([11]; Dose (µg) 5): 7.0 mmol/L
Median glucose peak after lunch ([11]; Dose (µg) 5): 4.9 mmol/L
Overall daily food intake compared with placebo ([11]; Dose (µg) 10): 100%
Median glucose peak after breakfast ([11]; Dose (µg) 10): 5.8 mmol/L
Median glucose peak after dinner ([11]; Dose (µg) 10): 6.0 mmol/L
Median glucose peak after lunch ([11]; Dose (µg) 10): 5.1 mmol/L
Overall daily food intake compared with placebo ([11]; Dose (µg) 30): 96%
Median glucose peak after breakfast ([11]; Dose (µg) 30): 5.4 mmol/L
Median glucose peak after dinner ([11]; Dose (µg) 30): 5.2 mmol/L
Median glucose peak after lunch ([11]; Dose (µg) 30): 4.4 mmol/L
Overall daily food intake compared with placebo ([11]; Dose (µg) 100): 82%
Median glucose peak after breakfast ([11]; Dose (µg) 100): 5.5 mmol/L
Median glucose peak after dinner ([11]; Dose (µg) 100): 5.2 mmol/L
Median glucose peak after lunch ([11]; Dose (µg) 100): 4.7 mmol/L
Overall daily food intake compared with placebo ([11]; Dose (µg) 150): 60%
Median glucose peak after breakfast ([11]; Dose (µg) 150): 5.1 mmol/L
Median glucose peak after dinner ([11]; Dose (µg) 150): 5.2 mmol/L
Median glucose peak after lunch ([11]; Dose (µg) 150): 5.1 mmol/L
Overall daily food intake compared with placebo ([11]; Dose (µg) 300): 23%
Median glucose peak after breakfast ([11]; Dose (µg) 300): 4.7 mmol/L
Median glucose peak after dinner ([11]; Dose (µg) 300): 4.9 mmol/L
Median glucose peak after lunch ([11]; Dose (µg) 300): 5.1 mmol/L
overall daily food intake ([11]; all single doses compared with placebo): reduction in overall daily food intake
plasma glucose levels ([11]; all single doses, 2.5-14 hours post-dose): glucose lowering effect
